According to patent US20120165319A1, “INHIBITORS OF INTERLEUKIN-1 BETA CONVERTING ENZYME” (VERTEX PHARMACEUTICALS INCORPORATED, priority 1995, published 2012):
Read-outs that look alike come from different tables or passages of the source.

Legend:
IL-1β, human whole blood = assay: Whole blood assay for IL-1β production; assay type: cell-based; conditions: Homo sapiens, read-out: Whole human blood IC50
How it was run: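 IL-1β was quantified by ELISA in plasma diluted 1:200. The plasma came from EDTA-anticoagulated human whole blood incubated at 30 °C for 16-18 h with LPS (final 5.0 ng/ml) plus a saline serial dilution of compound. Controls were no-LPS, no-inhibitor and highest-vehicle.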

[1] = Pharmacokinetic studies in the mouse (i.v. clearance, plasma levels); assay type: in vivo; conditions: CD-1, plasma, iv, mouse, 25 mg/kg
Procedure: Pharmacokinetic Studies in the Mouse
Sample Preparation and Dosing
Compounds were dissolved in sterile TRIS solution (0.02M or 0.05M) at a concentration of 2.5 mg/ml. Where necessary to ensure a complete solution, the sample was first dissolved in a minimum of dimethylacetamide (maximum of 5% of total solution volume) then diluted with the TRIS solution.
The drug solution was administered to CD-1 mice (Charles River Laboratories—26-31 g) via the tail vein at a dose volume of 10 ml/kg giving a drug dose of 25 mg/kg.
Mice were dosed in groups of 5 for each timepoint (generally from 2 minutes to 2 hours) then at the appropriate time the animals were anaesthetised with halothane and the blood collected into individual heparinized tubes by jugular severance. The blood samples were cooled to 0° C. then the plasma separated and stored at −20° C. until assayed.
Drug concentration in the plasma samples were determined by HPLC analysis with UV or MS (ESP) detection. Reverse phase chromatography was employed using a variety of bonded phases from C1 to C18 with eluents composed of aqueous buffer/acetonitrile mixtures run under isocratic conditions.
Quantitation was by external standard methods with calibration curves constructed by spiking plasma with drug solutions to give concentrations in the range of 0.5 to 50 μg/ml.
Prior to analysis the plasma samples were deproteinated by the addition of acetonitrile, methanol, trichloroacetic acid or perchloric acid followed by centrifugation at 10,000 g for 10 minutes. Sample volumes of 20 μl to 50 μl were injected for analysis.
The drug was dissolved in sterile 0.02M Tris to give a 2.5 mg/ml solution which was administered to […] of 5 male CD-1 mice via the tail vein at a dose of 25 mg/kg. At each of the following timepoints: 2, 5, 10, 15, 20, 30, 45, 60, 90 and 120 minutes a group of animals was anaesthetised and the blood collected into heparinized tubes. After separation the plasma was stored at −20° C. until assayed.
Aliquots of plasma (150 μl) were treated with 5% perchloric acid (5 μl) then mixed by vortexing and allowed to stand for 90 minutes prior to centrifugation. The resulting supernatant was separated and 20 μl was injected for HPLC analysis.
Aliquots of plasma (100 μl) were diluted with acetonitrile (100 μl) then mixed by vortexing for 20 seconds before centrifugation for 10 minutes. The resulting supernatant was separated and 20 μl was injected for HPLC analysis.

[2] = tested on: IL-1β, human peripheral blood mononuclear cells (PBMC); assay: PBMC cell assay: IL-1β assay with human PBMC or enriched adherent mononuclear cells, LPS-stimulated; assay type: cell-based; conditions: Homo sapiens, PBMC
How it was run: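 Mature IL-1β is measured by ELISA in supernatants after 16–18 hr at 37 °C, 5% CO2, with LPS (5 ng/ml final) and test compound (0.1% DMSO final). Cells are human PBMC (6×10^6 cells/ml) or plate-adherent mononuclear cells (2.5−3.0×10^5 per well), and the 5–6 compound concentrations span the ICE Ki.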

ICE = target: T1, ICE (Homo sapiens, UniProt P29466); assay: Enzyme assay with UV-visible substrate (visible ICE assay, Succinyl-Tyr-Val-Ala-Asp-pNitroanilide); assay type: biochemical
T1 sequence (P29466 120-297 limits assumed): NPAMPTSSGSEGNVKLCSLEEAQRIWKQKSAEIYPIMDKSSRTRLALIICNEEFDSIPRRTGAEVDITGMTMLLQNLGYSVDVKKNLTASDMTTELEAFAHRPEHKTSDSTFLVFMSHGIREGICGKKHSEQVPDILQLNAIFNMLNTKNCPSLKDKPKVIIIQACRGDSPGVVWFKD
T1 sequence (P29466 317-404 limits assumed): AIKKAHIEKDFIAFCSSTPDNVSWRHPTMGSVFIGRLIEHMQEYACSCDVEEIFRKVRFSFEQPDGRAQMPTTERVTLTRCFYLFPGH
How it was run: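 Human ICE was preincubated with inhibitor in DMSO and buffer for 15 min at room temperature, then succinyl-Tyr-Val-Ala-Asp-pNA was added. pNA release was followed at 405-603 nm for 20 min at 37° C. Ki and inhibition mode came from fitting rates to standard kinetic equations.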

[3] = In vivo rat clearance assay; conditions: plasma, iv
Procedure: In Vivo Rat Clearance Assay
Cannulations of the jugular and carotid vessels of rats under anesthesia were performed one day prior to the pharmacokinetic study. M. J. Free, R. A. Jaffee; ‘Cannulation techniques for the collection blood and other bodily fluids’; in: Animal Models; p. 480-495; N. J. Alexander, Ed.; Academic Press; (1978). Drug (10 mg/mL) was administered via the jugular vein in a vehicle usually consisting of: propylene glycol/saline, containing 100 mM sodium bicarbonate in a 1:1 ratio. Animals were dosed with 10-20 mg drug/kg and blood samples were drawn at 0, 2, 5, 7, 10, 15, 20, 30, 60, and 90 minutes from an indwelling carotid catheter. The blood was centrifuged to plasma and stored at −20° C. until analysis. Pharmacokinetic analysis of data was performed by non-linear regression using standard software such as RStrip (MicroMath Software, UT) and/or Pcnonlin (SCI Software, NC) to obtain clearance values.
Rat plasma was extracted with an equal volume of acetonitrile (containing 0.1% TFA). Samples were then centrifuged at approximately 1,000×g and the supernatant analyzed by gradient HPLC. A typical assay procedure is described below.
A standard curve was run at 20, 10, 5, 2 and 1 μg/mL concentrations.

[4] = tested on: IL-1β production, LPS-challenged mice; assay: In vivo acute assay for efficacy as anti-inflammatory agent: LPS-induced IL-1β production in mice; set-up: species or system mouse; conditions: Mus musculus, po, LPS challenged mice, compound PO, 50 mg/kg, read-out: percent inhibition of IL-1β production
How it was run: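 Serum IL-1β was measured by ELISA 7 h after an IP dose of 20 mg/kg LPS in CD1 mice, n=6 per group. Compounds in olive oil/DMSO/ethanol 90:5:5 were injected IP 1 h post-LPS (some analogs were dosed at challenge), and separate groups received 50 mg/kg by oral gavage.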

[5] = * = values obtained upon reassay
[6] = 0 h, administered 0 h relative to time of LPS challenge
[7] = 2 h, administered −2 h relative to time of LPS challenge

Structure (SMILES)	melting point	Ki (ICE; Table 17)	clearance ([3]; Table 17)	IC50 ([2]; Table 17)	further results
O=C[C@H](CC(=O)O)NC(=O)[C@@H]1CCCN2CCC[C@H](NC(=O)CCc3ccccc3)C(=O)N12 [Compound 47b, [3S(1S,9S)]3-(Octahydro-10-oxo-9-(3-phenylpropionylamino)-6H-pyridazino-[1,2-a][1,2]diazepine-1-carboxamido)-4-oxobutanoic acid]	87 to 90 °C				IC50 (IL-1β, human whole blood; [5]): < 600 nM; clearance [1]: 338 mL/min/kg
O=C[C@H](CCC(=O)O)NC(=O)[C@@H]1CCCN2C(=O)CC[C@H](NC(=O)c3ccccc3)C(=O)N12 [Compound 235e, [4S,(1S,9S)]-4-[9-(Benzoylamino)-6,10-dioxo-1,2,3,4,7,8,9,10-octahydro-6H-pyridazino-[1,2-a][1,2]diazepine-1-carboxamido]-5-oxopentanoic acid]	142 °C (dec.)				clearance [1]: 36 mL/min/kg; IC50 [2, 5]: 4750 nM; Ki (ICE; Table 5): 510 nM
COC(=O)N[C@H]1CCC(=O)N2CCC[C@@H](C(=O)N[C@@H](CC(=O)O)C(=O)CSc3nnnn3-c3ccccc3)N2C1=O [Compound 280c, [3S(1S,9S)]3-[6,10-Dioxo-9-(methoxycarbonylamino)-1,2,3,4,7,8,9,10-octahydro-6H-pyridazino[1,2-a][1,2]diazepine-1-carboxamido]-4-oxo-5-[5-(1-phenyltetrazolyl)-thio]pentanoic acid]	105 to 130 °C		86 mL/min/kg	10000 nM	
O=C[C@H](CC(=O)O)NC(=O)[C@@H]1CCCN2C(=O)CC[C@H](NC(=O)c3ccc(O)cc3)C(=O)N12 [Compound 456]	> 260 °C				clearance ([3]; 10-20 mg/kg): 12.7 mL/min/kg; inhibition at 50 mg/kg [4, 6]: 69%; inhibition at 50 mg/kg ([4]; 1 h, administered +1 h relative to time of LPS challenge): 56%; inhibition at 50 mg/kg [4, 7]: 41%; Ki (ICE; Table 5): 4.5 nM
O=C1C[C@H](NC(=O)[C@@H]2CCCN3C(=O)CC[C@H](NC(=O)c4ccccc4)C(=O)N23)C(OC2CCCC2)O1 (stereo partly drawn) [Compound 2100l, [1S,9S(2RS,3S)]9-Benzamido-N-(2-cyclopentyloxy-5-oxo-tetrahydrofuran-3-yl)-6,10-dioxo-1,2,3,4,7,8,9,10-octahydro-6H-pyridazino[1,2-a][1,2]diazepine-1-carboxamide]	172 to 180 °C			750 nM	IC50 (IL-1β, human whole blood; Table 17): 2200 nM; inhibition at 50 mg/kg [4, 6]: 28%; inhibition at 50 mg/kg [4, 7]: 52%

More lines, main results first:

melting point	Ki (ICE; Table 17)	clearance ([3]; Table 17)	Structure (SMILES)	IC50 ([2]; Table 17)	further results
115 to 119 °C	30000 nM		O=C[C@H](CC(=O)O)NC(=O)[C@@H]1CCCN2CCC[C@@H](NC(=O)c3ccccc3)C(=O)N12 [Compound 246b, [3S(1S,9R)]3-(9-Benzoylamino-1,2,3,4,7,8,9,10-octahydro-10-oxo-6H-pyridazino[1,2-a][1,2]diazepine-1-carboxamido)-4-oxobutanoic acid]	> 30000 nM	clearance ([1]; Table 17): 87 mL/min/kg
157 to 162 °C	1200 nM	24 mL/min/kg	O=C[C@H](CC(=O)O)NC(=O)[C@@H]1CCCN2C(=O)CCN(NC(=O)Nc3ccccc3)C(=O)N12 [Compound 265f, [3S(4S)]3-[6,10-Dioxo-1,2,3,4,7,8,9,10-octahydro-7-(3-phenylureido)-6H-pyridazino[1,2-a][1,2,4]triazepine-4-carboxamido]-4-oxobutanoic acid]		
90 to 105 °C		50 mL/min/kg	COC(=O)N[C@H]1CCC(=O)N2CCC[C@@H](C(=O)N[C@@H](CC(=O)O)C(=O)COc3cccnc3)N2C1=O [Compound 283c, [3S(1S,9S)]3-[6,10-Dioxo-9-(methoxycarbonylamino)-1,2,3,4,7,8,9,10-octahydro-6H-pyridazino[1,2-a][1,2]diazepine-1-carboxamido]-4-oxo-5-(3-pyridinyloxy)pentanoic acid]	4000 nM	
138 to 142 °C	100 nM	16 mL/min/kg	COc1ccc(C(=O)NN2CCC(=O)N3CCC[C@@H](C(=O)N[C@H](C=O)CC(=O)O)N3C2=O)cc1 [Compound 1052, [3S(4S)]3-[6,10-Dioxo-7-(4-methoxybenzoylamino)-octahydro-6H-pyridazino[1,2-a][1,2,4]triazepine-4-carboxamido]-4-oxobutanoic acid]	2500 nM	
> 300 °C	170 nM	17 mL/min/kg	O=C[C@H](CC(=O)O)NC(=O)[C@@H]1CCCN2C(=O)CCN(NC(=O)c3ccc(O)cc3)C(=O)N12 [Compound 1056, [3S(4S)]3-[6,10-Dioxo-7-(4-hydroxybenzoylamino)-1,2,3,4,7,8,9,10-octahydro-6H-pyridazino[1,2-a][1,2,4]triazepine-4-carboxamido]-4-oxobutanoic acid]		
180 to 186 °C	360 nM	28 mL/min/kg	O=C[C@H](CC(=O)O)NC(=O)[C@@H]1CCCN2C(=O)CCN(NC(=O)Cc3ccccc3)C(=O)N12 [Compound 1095, [3S(4S)]3-(6,10-Dioxo-1,2,3,4,7,8,9,10-octahydro-7-phenylacetylamino-6H-pyridazino[1,2-a][1,2,4]triazepine-4-carboxamido)-4-oxobutanoic acid]	6000 nM	
